The results in this text go back to US11541059B2, “Heterocyclic compounds and uses thereof” (Infinity Pharmaceuticals, Inc., priority 2014, dated 2023).

In general, IC50 refers to the concentration that inhibits the measured activity by half. Low readings indicate greater potency in that assay, high ones weaker potency in that assay.

Where two headings read alike, the source gives them in different places.

Data set [1] concerns LLC tumor. As to the kind of experiment: LLC tumor brei model with or without cyclophosphamide. Type of data set: in vivo, mouse. To be noted: BB 15 mg/kg QD PO; cyclophosphamide 50 mg/kg EOD IP, FIG. 48.
Description: In this experiment, treatment began when tumors reached approx. 150 mm^3—around day 12. Caliper and xenogen images were monitored. Treatment groups n=13-15/group. […] Samples for FACs analysis were collected on day 23 post implant. Using FACS, cells were assayed for the level of CD11b and Gr-1.
Data set [2] deals with PI3K γ (Homo sapiens (Human), UniProt P48736). As to the kind of experiment: PI3-Kinase Promega ADP-Glo Max assay. The data set is classed as biochemical.
Chain of PI3K γ (P48736 whole entry): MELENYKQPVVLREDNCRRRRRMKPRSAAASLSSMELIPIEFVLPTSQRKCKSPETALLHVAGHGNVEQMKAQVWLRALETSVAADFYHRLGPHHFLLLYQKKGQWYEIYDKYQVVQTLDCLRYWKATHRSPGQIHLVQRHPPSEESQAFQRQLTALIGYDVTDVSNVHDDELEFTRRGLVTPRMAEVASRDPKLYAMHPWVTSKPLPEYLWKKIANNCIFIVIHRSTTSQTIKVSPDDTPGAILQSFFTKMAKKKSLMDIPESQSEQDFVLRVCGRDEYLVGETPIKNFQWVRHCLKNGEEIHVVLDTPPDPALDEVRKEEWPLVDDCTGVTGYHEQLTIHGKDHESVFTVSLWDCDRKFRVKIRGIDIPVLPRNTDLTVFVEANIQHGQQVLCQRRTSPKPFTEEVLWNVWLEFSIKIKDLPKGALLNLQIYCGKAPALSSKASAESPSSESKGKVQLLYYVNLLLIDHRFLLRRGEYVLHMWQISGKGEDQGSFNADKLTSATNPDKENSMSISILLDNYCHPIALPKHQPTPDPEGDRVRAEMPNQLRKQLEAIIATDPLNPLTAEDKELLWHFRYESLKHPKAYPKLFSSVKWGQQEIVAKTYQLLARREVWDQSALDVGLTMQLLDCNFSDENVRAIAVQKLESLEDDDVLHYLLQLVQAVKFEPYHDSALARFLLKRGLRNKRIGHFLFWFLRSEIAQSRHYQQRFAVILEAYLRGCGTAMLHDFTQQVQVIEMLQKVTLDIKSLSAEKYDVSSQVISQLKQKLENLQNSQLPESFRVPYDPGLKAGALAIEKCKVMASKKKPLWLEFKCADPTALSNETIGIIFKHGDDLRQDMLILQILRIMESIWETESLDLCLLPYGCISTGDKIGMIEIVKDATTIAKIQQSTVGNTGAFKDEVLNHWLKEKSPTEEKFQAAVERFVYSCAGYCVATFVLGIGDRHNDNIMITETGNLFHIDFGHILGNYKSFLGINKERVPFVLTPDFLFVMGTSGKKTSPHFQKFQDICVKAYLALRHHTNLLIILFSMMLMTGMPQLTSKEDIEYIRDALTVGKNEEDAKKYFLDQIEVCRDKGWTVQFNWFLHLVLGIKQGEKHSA
Description: (§4) Promega ADP-Glo Max assay kit (Cat. No. V7002) was utilized to determine IC50 values for α, β, δ and γ isoforms of human Class I PI3 kinases (Millipore). […] Reactions were incubated at room temperature for 2 hours followed by addition of 25 uL of stop solution. After a 40-minute incubation at room temperature, 50 uL of Promega detection mix was added followed by incubation for 1 hour at room temperature. Plates were then read on Envision plate reader in luminescence mode. Data was converted to % inhibition using the following equation below:
(§5) [formula] where S is the sample luminescence, Pos is a positive control without added PI3K, Neg is the negative control without added compound. Data was then plotted as % inhibition vs compound concentration.
Data set [3] concerns the target PI3K-γ in RAW264.7 macrophages (Mus musculus (Mouse), UniProt Q9JHG7). Nature of the data set: Raw264.7 p110 γ assay (phospho-AKT, C5a stimulated). The data set is classed as cell-based.
Source text: Briefly, serum-starved RAW264.7 cells are stimulated with a known GPCR agonist C5a. […] Cells can be treated with test compounds prior to, simultaneously with, or subsequent to the stimulation by C5a. RAW 264.7 cells respond to the complement component fragment C5a through activation of the C5a receptor, and the C5a receptor activates macrophages and induces cell migration.
In data set [4] the target is PI3K-δ in RAJI cells (Homo sapiens (Human), UniProt O00329). Nature of the data set: RAJI p110 δ assay (phospho-AKT, anti-human IgM stimulated). The data set is classed as cell-based.
Chain of PI3K-δ in RAJI cells (O00329 whole entry): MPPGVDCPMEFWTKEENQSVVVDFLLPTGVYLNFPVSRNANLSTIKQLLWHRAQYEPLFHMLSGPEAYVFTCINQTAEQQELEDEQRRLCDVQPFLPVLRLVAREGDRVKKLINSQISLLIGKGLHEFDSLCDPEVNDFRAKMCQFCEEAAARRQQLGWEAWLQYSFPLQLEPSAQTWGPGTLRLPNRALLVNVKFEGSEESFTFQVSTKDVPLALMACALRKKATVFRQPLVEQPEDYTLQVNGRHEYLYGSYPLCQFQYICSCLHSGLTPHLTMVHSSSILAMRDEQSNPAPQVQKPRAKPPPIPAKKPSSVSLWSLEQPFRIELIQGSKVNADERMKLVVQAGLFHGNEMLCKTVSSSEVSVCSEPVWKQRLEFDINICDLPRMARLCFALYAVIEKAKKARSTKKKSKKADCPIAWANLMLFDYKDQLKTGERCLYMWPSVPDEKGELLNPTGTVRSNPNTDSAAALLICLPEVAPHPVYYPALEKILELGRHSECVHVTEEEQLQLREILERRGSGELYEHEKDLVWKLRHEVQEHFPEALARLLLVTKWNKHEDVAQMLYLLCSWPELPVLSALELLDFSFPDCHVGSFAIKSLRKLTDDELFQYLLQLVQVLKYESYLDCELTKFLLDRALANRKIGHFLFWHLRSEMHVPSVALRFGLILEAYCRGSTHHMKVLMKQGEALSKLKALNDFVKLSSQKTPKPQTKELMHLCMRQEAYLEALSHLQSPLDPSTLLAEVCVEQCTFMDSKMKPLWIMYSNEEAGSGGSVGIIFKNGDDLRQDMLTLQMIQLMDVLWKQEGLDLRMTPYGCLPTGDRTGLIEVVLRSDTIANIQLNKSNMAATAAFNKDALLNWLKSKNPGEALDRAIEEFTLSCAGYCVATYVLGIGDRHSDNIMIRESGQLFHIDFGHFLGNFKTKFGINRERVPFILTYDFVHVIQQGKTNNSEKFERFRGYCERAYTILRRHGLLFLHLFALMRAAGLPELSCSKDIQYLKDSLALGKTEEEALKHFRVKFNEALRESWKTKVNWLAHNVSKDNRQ
Chain of PI3K-δ in RAJI cells (P27986 whole entry partner): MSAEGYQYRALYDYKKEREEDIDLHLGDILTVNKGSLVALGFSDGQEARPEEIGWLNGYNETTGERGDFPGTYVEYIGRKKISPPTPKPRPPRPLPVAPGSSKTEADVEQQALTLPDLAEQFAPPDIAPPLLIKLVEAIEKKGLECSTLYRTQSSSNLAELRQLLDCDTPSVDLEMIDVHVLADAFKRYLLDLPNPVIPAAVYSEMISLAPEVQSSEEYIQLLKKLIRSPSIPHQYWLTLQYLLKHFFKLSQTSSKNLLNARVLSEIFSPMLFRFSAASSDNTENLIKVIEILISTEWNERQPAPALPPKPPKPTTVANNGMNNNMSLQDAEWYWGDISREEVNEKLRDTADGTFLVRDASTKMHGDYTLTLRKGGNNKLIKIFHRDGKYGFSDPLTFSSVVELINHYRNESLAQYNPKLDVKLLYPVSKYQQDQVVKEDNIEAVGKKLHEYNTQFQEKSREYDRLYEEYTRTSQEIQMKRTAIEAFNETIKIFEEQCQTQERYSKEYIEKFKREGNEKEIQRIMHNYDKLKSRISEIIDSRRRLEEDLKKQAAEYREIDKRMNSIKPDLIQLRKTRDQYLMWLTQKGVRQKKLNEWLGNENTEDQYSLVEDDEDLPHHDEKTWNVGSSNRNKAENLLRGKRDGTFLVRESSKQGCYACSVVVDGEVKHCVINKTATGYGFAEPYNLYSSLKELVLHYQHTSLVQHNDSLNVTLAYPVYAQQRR
Description: Reduction of phospho-AKT is indicative of compounds that may inhibit B-cell proliferation and function in certain diseases.
Certain compounds provided herein were tested in RAJI cell model using procedures as described above.
The target of data set [5] is PI3K α (Homo sapiens (Human), UniProt P42336). Nature of the data set: PI3-Kinase Promega ADP-Glo Max assay. The data set is classed as biochemical. (In general: ADP-Glo first removes unused ATP, then detects ADP through luciferase.)
Description: as §4, §5
Data set [6] has as its target PI3K δ (Homo sapiens (Human), UniProt O00329). Nature of the data set: PI3-Kinase Promega ADP-Glo Max assay. Type of data set: biochemical.
Description: as §4, §5
The target of data set [7] is PI3K β (Homo sapiens (Human), UniProt P42338). Nature of the data set: PI3-Kinase Promega ADP-Glo Max assay. The data set is classed as biochemical.
Description: as §4, §5
Data set [8] concerns human T cells. Nature of the data set: Concanavalin A-induced model for activation of human T cells (IFN-γ). The data set is classed as cell-based. To be noted: isoform selective concentrations.
The nature of data set [9]: Oral PK in the rat LPS studies (free plasma concentration). Type of data set: in vivo. The following applies: p.o. 0.2 mg/kg. The source says:
(§1) This study also includes assessment of the exposure to the compounds in plasma and lung tissues.

Data set [10] relates to CXCL12 induced p-AKT in M1 polarized macrophage. Nature of the data set: CXCL12-induced p-AKT induction assay, M1 polarized macrophages. The data set is classed as cell-based, mouse. The source says:
(§2) Long bones from young C57B6 mice were harvested and bone marrow was extruded by gentle lavage of the bone marrow cavities with a 28 guage needle. Red blood cells were removed using red blood cell lysis buffer (Sigma). Bone marrow cells were differentiated to macrophages using MCSF for 6 days (RPMI and 20% FCS) with one media change (with removal of all non-adherent cells) at day 3. Macrophages were polarized into M0 (MCSF), M1 (MCSF, IFNγ, and LPS for 1 day), or M2 (MCSF, IL4 for 2 days).
(§3) CXCL12-induced p-AKT induction assay: Polarized macrophages were lifted with Acutase, and plated at 0.5M cells per well (0.5 ml) in a deep well (2 ml) non adherant plate in polarization media for 1 hour. […] CXCL12 was added, and the cells were mixed on a plate shaker for 2 minutes. 1 ml of 37 degree FACS Lyse/fix buffer (BD bioscience) was added and the plate was mixed for 1 minute. The plates were spun and decanted and frozen at −80° C. Phospho AKT staining with anti Phospho AKT 473 PERCP labeled (Cell Signaling Technologies) was performed and measured by flow cytometry. Total cell MFI was used to calculate the effect of tested compound on CXCL12 induction of phospho AKT.

Data set [11] has as its system LPS induced neutrophil influx in BALF. As to the kind of experiment: LPS-induced neutrophilia, oral administration. The following applies: rat, p.o., 4 hours post-LPS challenge. Type of data set: in vivo.
Source text: as §1

Data set [12] has as its system CXCL12 induced p-AKT in M2 polarized macrophage. Nature of the data set: CXCL12-induced p-AKT induction assay, M2 polarized macrophages. Type of data set: cell-based, mouse.
Source text: as §2, §3

Data set [13] can be described thus: Pharmacokinetics of Compound 88, oral. The following applies: female C57 mice. The data set is classed as in vivo, mouse. As for the experimental part:
A similar study was carried out using Compound 88. […] Below is a table that details the results for Compound 88: […]

Chain of PI3K-γ in RAW264.7 macrophages (Q9JHG7 whole entry): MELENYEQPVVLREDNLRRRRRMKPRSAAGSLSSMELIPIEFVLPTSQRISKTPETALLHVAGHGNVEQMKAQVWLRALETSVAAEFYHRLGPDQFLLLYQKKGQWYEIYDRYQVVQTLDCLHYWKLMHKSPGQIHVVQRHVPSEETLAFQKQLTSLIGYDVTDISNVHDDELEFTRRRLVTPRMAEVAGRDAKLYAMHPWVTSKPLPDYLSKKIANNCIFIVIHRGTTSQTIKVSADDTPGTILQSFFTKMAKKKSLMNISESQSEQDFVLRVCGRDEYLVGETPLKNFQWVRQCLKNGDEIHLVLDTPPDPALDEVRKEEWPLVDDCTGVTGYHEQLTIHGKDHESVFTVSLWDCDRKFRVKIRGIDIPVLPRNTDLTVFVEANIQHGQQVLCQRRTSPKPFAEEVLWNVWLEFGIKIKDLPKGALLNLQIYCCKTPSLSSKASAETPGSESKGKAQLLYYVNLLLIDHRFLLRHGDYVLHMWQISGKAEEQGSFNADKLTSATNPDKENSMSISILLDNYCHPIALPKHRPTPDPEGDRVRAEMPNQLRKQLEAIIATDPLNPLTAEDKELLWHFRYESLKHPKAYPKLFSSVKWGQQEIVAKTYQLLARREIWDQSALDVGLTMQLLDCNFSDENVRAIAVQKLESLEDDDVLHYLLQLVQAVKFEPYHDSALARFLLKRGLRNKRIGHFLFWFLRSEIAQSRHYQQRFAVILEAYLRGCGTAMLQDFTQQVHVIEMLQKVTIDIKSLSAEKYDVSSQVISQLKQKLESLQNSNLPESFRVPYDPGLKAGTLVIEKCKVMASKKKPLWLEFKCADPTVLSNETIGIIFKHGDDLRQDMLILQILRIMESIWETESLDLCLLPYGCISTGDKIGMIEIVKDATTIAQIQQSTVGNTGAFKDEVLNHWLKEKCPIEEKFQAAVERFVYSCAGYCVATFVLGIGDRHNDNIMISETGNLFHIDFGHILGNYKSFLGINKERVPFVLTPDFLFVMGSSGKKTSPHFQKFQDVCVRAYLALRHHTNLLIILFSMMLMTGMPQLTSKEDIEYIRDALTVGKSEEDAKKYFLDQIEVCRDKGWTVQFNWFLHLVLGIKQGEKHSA
Chain of PI3K δ (O00329 whole entry): as the sequence (O00329 whole entry) above
Chain of PI3K δ (P27986 whole entry partner): as the sequence (P27986 whole entry partner) above

`O=P1(N(CCCl)CCCl)NCCCO1` (stereo not shown) [cyclophosphamide, reference compound]: in [1], the “Tumor growth, LLC tumor brei model” value was “reduced tumor growth by about the same amount”.
Regarding `C/C=C/c1cccc2cc([C@H](C)NC(=O)c3c(N)nn4cccnc34)n(-c3ccccc3)c(=O)c12` [Compound 70], in data set [2], the “PI3K δ/PI3K γ IC50 (selectivity)” value was “X (key: V = 0.1 to 1; W = > 1 to <10; X = 10 to <50; Y = 50 to <850)”. For the same compound, the “RAJI δ/Raw264.7 γ IC50 (selectivity)” value in data set [3] is on record as “X (key: V = 0.1 to 1; W = > 1 to <10; X = 10 to <50; Y = 50 to <850)”.
As for `C[C@H](NC(=O)c1c(N)nn2cccnc12)c1nc2cccc(C#CC(C)(C)C)c2c(=O)n1-c1ccccc1` [Compound 3], the IC50 in data set [4] fell in the range of 1 to 10 µM; in [5], 5 to 10 µM; in data set [6] it was 5 to 10 µM; in [7], 5 to 10 µM; in data set [2] it was 1 to 5 µM; in [3] (phospho-AKT), 0.05 to 0.1 µM. Also, in data set [2] (ratio of biochemical IC50s), the “PI3K δ/PI3K γ IC50 (selectivity)” value is “W (W = > 1 to <10)”. Besides, the “RAJI δ/Raw264.7 γ IC50 (selectivity)” value in data set [3] is “X (key: V = 0.1 to 1; W = > 1 to <10; X = 10 to <50; Y = 50 to <850)”.
In the case of `Cc1cnc(C(=O)N[C@@H](C)c2cc3cccc(C#Cc4cnn(C)c4)c3c(=O)n2-c2ccccc2)c(N)n1` [Compound 68], the “PI3K δ/PI3K γ IC50 (selectivity)” value in data set [2] (ratio of biochemical IC50s) was “W (W = > 1 to <10)”. For the same compound, in [3] (ratio of cellular IC50s), the “RAJI δ/Raw264.7 γ IC50 (selectivity)” value is recorded as “W (W = > 1 to <10)”.
As for `C[C@H](NC(=O)c1c(N)nn2cccnc12)c1cc2cccc(C#CC3CC3)c2c(=O)n1-c1ccccc1` [Compound 9], in data set [2], the “PI3K δ/PI3K γ IC50 (selectivity)” value is on record as “X (key: V = 0.1 to 1; W = > 1 to <10; X = 10 to <50; Y = 50 to <850)”. The “RAJI δ/Raw264.7 γ IC50 (selectivity)” value in data set [3] is “Y (key: V = 0.1 to 1; W = > 1 to <10; X = 10 to <50; Y = 50 to <850)”.
Turning to `CC(C)n1c([C@H](C)Nc2ncnc(N)c2C#N)cc2cccc(-c3ccc(=O)n(C)c3)c2c1=O` [Compound AA], the “effect on IFN-γ” value in [8] was “highly selective inhibitor”. In addition, in data set [9] (approximately 4 hours post LPS challenge), the “Free Plasma Conc (nM) […]” value is listed as “BLQ”. Besides, in [9] (at time of LPS challenge), the “Free Plasma Conc (nM) 1.5 h” value is on record as “BLQ”. Also, the “Inhibition of CXCL12-induced p-AKT” value in data set [10] and in data set [12] was “did not significantly inhibit” each time. For the same compound, the “Neutrophil in bronchoalveolar lavage fluid (BALF)” value in [11] is reported as “reduced neutrophil”.
Consider `Cc1c(C#Cc2cccc3nc([C@H](C)NC(=O)c4c(N)nn5cccnc45)n(-c4ccccc4)c(=O)c23)cnn1C` [Compound 88, (S)-2-amino-N-(1-(5-((1,5-dimethyl-1H-pyrazol-4-yl)ethynyl)-4-oxo-3-phenyl-3,4-dihydroquinazolin-2-yl)ethyl)pyrazolo[1,5-a]pyrimidine-3-carboxamide], for which the Stability in serum entry in data set [13] was “good stability in serum”.
